Measurements reported in US20240327789A1, “HUMAN CEREBELLAR ORGANOIDS WITH BONA FIDE PURKINJE CELLS AND USES THEREOF” (University of Southern California, priority 2023, published 2024).

Test system: hCerOs
Assay: Two-photon calcium imaging of intact hCerOs with bath application of drugs
Assay type: cell-based, human

Question: For NC1=N[C@H](O)[C@H]2[C@H]3O[C@]4(O)O[C@@H]([C@@H](O)[C@@]2(N1)[C@@H]4O)[C@]3(O)CO [Tetrodotoxin], which “sensitivity of individual Ca2+ neuronal calcium signals” value is on record?
Answer: The value was “sensitive”.
